Assay: Permeability study through full thickness nail plates in modified Franz diffusion cells
Assay type: in vitro ADME, human
Conditions: for Total permeation of drug through nail plates: phosphate buffer pH 7.2 / 0.5% Brij 58 donor, after 48 hours
Procedure: Example 6 examines permeability of the medicament into the nail. For this Example, ketoconazole is utilized as a model drug to perform permeability studies. The drug is dissolved in two different media for testing which functioned as the donor solution. The first is an isotonic phosphate buffer solution (pH 7.2) with 0.5% Brij 58 as a solubilizer. The second is an 80:20 methanol/water solution buffered to pH 7.2. The receptor media is the same as the donor media without dissolved drug in both cases.
A system employing 9 modified glass Franz diffusion cells is used. Full thickness nail plates are sandwiched between two polypropylene adapters with an O-ring and were mounted on the individual cells with the dorsal nail plate facing the donor compartment (receptor volume 5.2 ml; donor surface area 0.5 cm^2). The receptor fluid is maintained at 37±0.5° C. and is continuously stirred with a magnetic bar. The donor solutions are applied to the dorsal nail surface following a one hour hydration period. Samples of the receptor phase are withdrawn at predetermined time intervals (for up to 48 hours) and immediately replaced with fresh […]. Analysis of the samples is corrected for previous drug removed. The receptor and donor compartments are sealed with a sheet of aluminum foil and wrapped with parafilm. The hermeticity of the system was continuously monitored. Drug content in the receptor media is determined using high performance liquid chromatography.

With `CC(=O)N1CCN(c2ccc(OCC3COC(Cn4ccnc4)(c4ccc(Cl)cc4Cl)O3)cc2)CC1` (stereo not drawn) [ketoconazole] as the molecule, how does the “Greater total permeation, etched vs nonetched nail” value (80:20 methanol/water buffered to pH 7.2 donor) read?
The value was roughly 3 fold.

What about the “Total permeation of drug through nail” value (80:20 methanol/water buffered to pH 7.2 donor, etched nail) of the same molecule?
The value was 6,191±323.3 μg/cm^2.

What about the “Total permeation of drug through nail” value (80:20 methanol/water buffered to pH 7.2 donor, nonetched nail) of the same molecule?
The value was 2,497±237 μg/cm^2.

What about the “Total permeation of drug through nail plates” value (etched nail plates) of the same molecule?
The value was 1,873 (±155) μg/cm^2.

And the “Total permeation of drug through nail plates” value (unetched nail plates)?
The value was 446 (±51) μg/cm^2.

And the “Difference in total permeation, etched vs unetched nail” value (phosphate buffer/Brij 58 donor, 48 hours)?
The value was roughly 4 fold.

From patent US7959904B2, “Delivery of medicaments to the nail” (University of Mississippi, priority 2001, dated 2011)
